The values that follow come from patent US20090023762A1, “Substituted 2-Aminopyrimidine-4-Ones, Their Pharmaceutical Compositions And Their Use In The Treatment And/Or Prevention Of Ab-Related Pathologies” (ASTRAZENECA AB, priority 2005, published 2009).

The experiment concerns the target T1, human β-Secretase (Homo sapiens, UniProt P56817).
T1 construct: The soluble part of the human β-Secretase (AA 1-AA 460) was cloned; Fc domain of IgG1 (C); made in house
Nature of the experiment: TR-FRET assay. Format: biochemical. The note with it: substrate (Europium)CEVNLDAEFK(Qsy7) 100 nM, enzyme 0.3 nM, pH 4.5. The method, then:
The enzyme used in the IGEN Cleavage-, Fluorescent-, TR-FRET- and the BiaCore assay is described as follows:
The soluble part of the human β-Secretase (AA 1-AA 460) was cloned into the ASP2-Fc10-1-IRES-GFP-neoK mammalian expression vector. The gene was fused to the Fc domain of IgG1 (affinity tag) and stably cloned into HEK 293 cells. Purified sBACE-Fc is stored in Tris buffer, pH 9.2 and has a purity of 95%.
Dilute the enzyme (truncated form) to 6 μg/mL (stock 1.3 mg/mL) and the substrate (Europium)CEVNLDAEFK (Qsy7) to 200 nM (stock 60 μM) in reaction buffer (NaAcetate, chaps, triton x-100, EDTA pH4.5). The Biomek FX is used for all liquid handling and the enzyme and substrate solutions are kept on ice until they are placed in Biomek FX. Enzyme (9 μl) is added to the plate then […] in dimethylsulphoxide is added, mixed and pre-incubated for 10 minutes. Substrate (10 μl) is then added, mixed and the reaction proceeds in the dark for 15 minutes at room temperature. The reaction is stopped with the addition of Stop solution (7 μl, NaAcetate pH 9). The fluorescence of the product is measured on a Victor II plate reader with an excitation wavelength of 340 nm and an emission wavelength of 615 nm. The assay is done in a Costar 384 well round bottom, low volume, non-binding surface (Corning #3676). […]
(In general: Time-resolved FRET reads energy transfer from a long-lived donor to a nearby acceptor.)

T1 sequence (P56817 22-460): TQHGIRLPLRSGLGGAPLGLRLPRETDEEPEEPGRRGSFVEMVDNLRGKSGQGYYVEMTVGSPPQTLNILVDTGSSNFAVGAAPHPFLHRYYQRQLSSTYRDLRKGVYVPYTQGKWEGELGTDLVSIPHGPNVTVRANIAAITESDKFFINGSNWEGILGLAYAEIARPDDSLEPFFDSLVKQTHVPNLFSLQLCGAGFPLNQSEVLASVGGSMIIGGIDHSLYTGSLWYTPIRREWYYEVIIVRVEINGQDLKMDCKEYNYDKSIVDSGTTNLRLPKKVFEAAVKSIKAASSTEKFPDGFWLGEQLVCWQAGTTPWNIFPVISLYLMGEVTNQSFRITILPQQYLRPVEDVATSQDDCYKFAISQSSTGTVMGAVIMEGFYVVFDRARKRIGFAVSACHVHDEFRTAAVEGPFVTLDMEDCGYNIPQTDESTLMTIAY

As usually defined, the IC50 is the concentration at which inhibition is half-maximal. Lower therefore signals greater potency in that assay. The compound `COc1cc(OS(C)(=O)=O)cc(-c2cccc(C3(C)CC(=O)N(C)C(N)=N3)c2)c1` (stereo not shown) [Example 9, 3′-(2-Amino-1,4-dimethyl-6-oxo-1,4,5,6-tetrahydropyrimidin-4-yl)-5-methoxybiphenyl-3-yl methanesulfonate] gave an IC50 of 0.703 µM.
